Structure (SMILES)	melting point
CCCC1(C(C)(C)C(=O)Oc2ccc(N)cc2)C(=O)NC(=O)NC1=O	212 to 215 °C
CN1CCN(C(c2ccc(Cl)cc2)c2cccc(C=CC(=O)O)c2)CC1 (centres undefined)	131 to 141 °C
C=Cc1c(C(C)C)nc(C(C)C)c(CO)c1-c1ccc(F)cc1	119 to 120 °C
CC(C)(C)n1cc(-c2ccc(S(=O)(=O)c3ccccc3)cc2)c2c(N)ncnc21	222 to 224 °C
CNC(=S)Nc1ccccc1N1CCOCC1	115 to 116 °C
Cc1nc2c(N)nc3ccccc3c2n1CCOC/C=C/c1ccccc1	112 °C
Cc1ccc(-c2ccccn2)cc1S(N)(=O)=O	173 to 176 °C
CCC(O)c1c(C)nc2ccccc2c1N (centres undefined)	220 to 230 °C
Cc1ccc(-c2ccc(S(C)(=O)=O)cc2)n1-c1ccc(-c2ccc[nH]2)cc1	225 to 227 °C
COc1ccc(C(F)(F)F)cc1NC(=O)Nc1ccc(-c2c(C(N)=O)[nH]c3ccccc23)cc1	178 to 180 °C
C(=C/c1cn(C(c2ccccc2)(c2ccccc2)c2ccccc2)cn1)/CCOCc1ccccc1	101 to 104 °C
CC(=O)N[C@@H](CSC(C)=O)C(=O)NCCSC(C)=O	153 to 154 °C
c1ccc(Oc2ccc(OCCCn3ccnc3)cc2)cc1	54.5 to 55.5 °C
CC(O)C(=O)NC1CCC(CC2CCC(NC(=O)C(C)O)CC2)CC1 (centres undefined)	195 to 199 °C
O=C(O)CCCc1ccc(S(=O)(=O)Nc2ccccc2)cn1	158 to 159 °C
C(=C1c2ccccc2-c2ccccc21)c1nc(COc2ccc(CCCn3ccnc3)cc2)co1	116 to 117 °C
Clc1nc2ccccc2c2c(CCC3CCNCC3)n(-c3ccccc3)nc12	194 °C
CC(CCc1ccc2c(c1)OCO2)NCC(O)c1cc(C(N)=O)cs1 (centres undefined)	112 to 114 °C
Cn1cc(Cl)c(-n2ccnc2S(N)(=O)=O)n1	208 to 210 °C
Cc1ccccc1-n1ccc2nnc3c(C)cccc3c21	105 to 106 °C
Cc1nc(-c2cc3cc(OCCNC[C@@H](O)c4csc(C(F)(F)F)n4)ccc3o2)no1	143 to 146 °C

Next, values leading:

melting point	Structure (SMILES)
129 to 130 °C	CC(=O)c1ccc(NS(=O)(=O)N(C)C)cc1
138 to 140 °C	CCn1cc(Nc2nc(-c3cccc(N4Cc5cc(C(C)(C)C)ccc5C4=O)c3CO)cn(C)c2=O)cn1
110 to 111 °C	COc1ccc(C)cc1-c1cc(F)cc2c1OC(CN)C2 (centres undefined)
135 to 136 °C	Cc1onc(C(F)(F)F)c1CS(=O)(=O)C1=NOC(C)(C)C1
192 to 193 °C	CC(C)Oc1c(C(=O)O)sc2c1CS(=O)CC2 (centres undefined)
148 to 151 °C	CCOC(=O)c1c(C)[nH]c(Sc2cc(Cl)cc(Cl)c2)c1C(C)C
126 to 128 °C	CC(O)(c1nc2cc(S(=O)(=O)c3ccccc3)ccc2s1)C(F)(F)F (centres undefined)
112 °C	CCCC(=O)OCC(=O)C1C(C)CC2C3=C(C(O)CC21C)C1(C)C=CC(=O)C=C1C(F)C3 (centres undefined)
88.5 to 90.5 °C	CC(C)(C)OC(=O)N1CCc2cc(-c3ccc(Cl)cc3)ccc2C1
> 270 °C	Nc1cc(-n2cc(C(=O)O)c(=O)c3cc(F)c(F)cc32)c(F)cc1F
219 to 220 °C	CC(C)(C)C(NC(=O)CCc1ccccc1)Nc1c(Nc2cccnc2)c(=O)c1=O (centres undefined)
249 to 251 °C	Nc1ccc(S(=O)(=O)c2cc(-c3cccc([N+](=O)[O-])c3)nc(N3CCCC3)c2)cc1
224 to 227 °C	COc1ccc(OC2c3cc(C#N)ccc3OC(C)(C)C2O)nn1 (centres undefined)
178 to 181 °C	CC(C)(C)C(=O)NS(=O)(=O)c1cccc([N+](=O)[O-])c1
154 to 156 °C	CC1CCN(CCNc2ccnc3cc(Cl)ccc23)CC1
146 to 148 °C	CC(=O)N1CCC(NC(=O)Nc2ccc(F)cc2)CC1
155 °C	CS(=O)(=O)c1ccccc1C(=O)C(C#N)C(=O)C1CC1 (centres undefined)
> 260 °C	COC(=O)c1ccc(C=Cc2cnc3nc(NC(=O)C(C)(C)C)nc(O)c3c2)[nH]1
204 to 206 °C	CC(C)=C(c1ccc(C(=O)O)cc1)c1ccc2c(c1)C(C)(C)CCC2(C)C
143 to 144 °C	Cc1cc(O)ccc1NC(=O)OC(C)(C)C
232 to 233 °C	O=C(O)[C@@H]1CCN2C(=O)CC[C@H](N3C(=O)c4ccccc4C3=O)C(=O)N12
125 to 128 °C	CCCCNC(=O)c1cccc(NC(=O)NS(=O)(=O)c2ccc(C)cc2)c1
131 to 133 °C	CCCCNC(=O)S(=O)(=O)Nc1sc(CC(C)C)cc1-c1ccc(Cn2c(-c3ccccc3)nc(OC)c2C=O)cc1
145 to 147 °C	COc1c(C=CC(=O)O)cccc1Oc1ccccc1Cl
233 to 234 °C	O=C(CN1CC(F)(F)Cn2c1nc(-c1ccncn1)cc2=O)c1ccccc1
> 250 °C	CC1COCc2nc3c(N)nc4cc(C=CC(=O)N(C)C)ccc4c3n21 (centres undefined)
70 to 72 °C	CCOC(=O)CNCc1cc(N(C)C)ccc1[N+](=O)[O-]
65.5 to 67 °C	COC(=O)c1cc(Cl)ccc1N(C)S(=O)(=O)c1ccc(C)cc1

From a melting point compilation (Tetko et al.; mined from patent text by program, amines drawn as free bases though some values may be those of a salt)
